# Where a SMILES comes first, the peptide text is derived from it. Bridges are numbered along the chain shown (N, C = ends).
# Legend:
# LE II cells [1] = assay: Inhibition of EGF-induced cell proliferation ([3H]-methylthymidine incorporation); assay type: cell-based, Murine; settings: induced by 2 × 10^-9 M EGF; for % Enhancement of thymidine incorporation: control 380 ± 20
# Description: (§1) LE II cells were grown to confluence in 48 well cluster dishes and starved for two days in DMEM containing 0.5% fetal calf serum.
# (§2) The percent enhancement of thymidine incorporation was used as the measure of cell proliferation. The lower the percentage of thymidine incorporation, the lower the rate of cell proliferation. Inhibition of EGF-induced cell proliferation by the foregoing compounds is reflected in Table II. Table III gives the inhibition of TGFα-induced cell proliferation.
# LE II cells [2] = assay: Inhibition of TGFα-induced cell proliferation ([3H]-methylthymidine incorporation); assay type: cell-based, Murine; settings: induced by 2 × 10^-9 M TGFα; for % of thymidine incorporation: control 420 ± 30
# Description: as §1, §2
# EGF receptors = target: T1, EGF receptors (Mus musculus, UniProt Q01279); assay: Competitive antagonism of 125I-EGF binding to LE II cells (Scatchard plots); set-up: species or system Murine; settings: in the presence of 20 μg/ml peptide, 4° C.; for apparent association constant for EGF: lower = more effective competitor
# T1 construct: endogenous in cells; host or cells: LE II murine lung endothelial cells
# Description: Murine lung endothelial cells identified as LE II were grown to confluence in 24 well cluster dishes in Dulbecco's minimal essential medium (DMEM) containing 10% fetal calf serum. Cells were washed twice with DMEM containing 1% bovine serum albumin and buffered at pH 7.4 with 50 mM Hepes buffer (DMEM-BSA). […] At the end of the incubation period, cells were washed three times with DMEM-BSA, lysed in 0.1N sodium hydroxide and cell-associated radioactivity was determined in a gamma counter.
# [3] = tested on: rabbit anti-TGF α-KLH IgG; assay: Competitive radioimmunoassay: iodinated rabbit anti-TGF α-KLH IgG preincubated with inhibitor, then bound to BSA-peptide complex coated wells; assay type: binding; settings: no inhibitor 8400 ± 600 cpm
# Description: A. Rabbit IgG antibodies to the compound [drawing 24] (anti-TGF α-KLH), as prepared in accordance with Example 7, were iodinated by the chloramine-T method. To 1 mg anti-TGF α-KLH antibody in 0.2M phosphate buffer (pH 7.6) was added 20 μl of a 2 mg/ml solution of chloramine-T and 1mCiNa^125 I for 3 minutes at room temperature. 1 mg KI was added and excess free iodine removed by chromatography on a Sephadex G-50 column. The specific activity of the antibodies varied between 200,000 and 400,000 counts per minute (cpm)/μg protein. Flexible polyvinylchloride plates were coated with a 1 mg/ml solution of BSA-peptide complex (prepared in accordance with Example 6A) in phosphate buffered saline (PBS) for 16 hours at 4° C. Plates were countered with a solution containing BSA and 1% Bovine gamma globulin.
# These solutions were then added to the coated wells for an additional 2 hours at 37° C. After several washes with PBS containing 0.1% BSA, individual wells were cut apart and counted in a gamma counter.
Compound,"% Enhancement of thymidine incorporation, second figure relative to control = 100 (ratio of TGF α fragment/EGF counts per minute) (LE II cells [1]; peptide 10^-5 M)",% Enhancement of thymidine incorporation (LE II cells [1]; peptide 10^-5 M),"% Enhancement of thymidine incorporation, second figure relative to control = 100 (ratio of TGF α fragment/EGF counts per minute) (LE II cells [1]; peptide 10^-6 M)",% Enhancement of thymidine incorporation (LE II cells [1]; peptide 10^-6 M),"% Enhancement of thymidine incorporation, second figure relative to control = 100 (ratio of TGF α fragment/EGF counts per minute) (LE II cells [1]; peptide 10^-7 M)",apparent association constant for EGF (EGF receptors),cpm of iodinated anti-TGF α-KLH IgG bound to coated wells ([3]; inhibitor 10 ng/ml),cpm of iodinated anti-TGF α-KLH IgG bound to coated wells ([3]; inhibitor 100 ng/ml),cpm of iodinated anti-TGF α-KLH IgG bound to coated wells ([3]; inhibitor 1000 ng/ml),further results
CC(C)[C@@H]1NC(=O)CNC(=O)[C@H](C(C)C)NC(=O)[C@H](Cc2ccc(O)cc2)NC(=O)CNC(=O)[C@H](CO)NC(=O)[C@H](Cc2c[nH]cn2)NC(=O)[C@@H](N)CSSC[C@@H](C(=O)O)NC(=O)[C@H](CCCNC(=N)N)NC1=O [Peptide 1] (H-CHSGYVGVRC-OH; disulfide 1-10),70%,265 ± 15%,95%,360 ± 20%,103%,1.5e+10 M⁻¹,–,–,–,"% of thymidine incorporation, second figure relative to control = 100 (LE II cells [2]; peptide 10^-5 M): 79%; % of thymidine incorporation (LE II cells [2]; peptide 10^-5 M): 330 ± 10%; % of thymidine incorporation, second figure relative to control = 100 (LE II cells [2]; peptide 10^-6 M): 95%; % of thymidine incorporation (LE II cells [2]; peptide 10^-6 M): 400 ± 20%; % of thymidine incorporation, second figure relative to control = 100 (LE II cells [2]; peptide 10^-7 M): 95%; % of thymidine incorporation (LE II cells [2]; peptide 10^-7 M): 400 ± 20%"
CC(C)[C@@H]1NC(=O)[C@H](Cc2ccc(O)cc2)NC(=O)CNC(=O)[C@H](CO)NC(=O)[C@H](Cc2c[nH]cn2)NC(=O)[C@@H](N)CSSC[C@@H](C(=O)O)NC(=O)[C@H](CCCNC(=N)N)NC(=O)[C@H](C)NC(=O)CNC1=O [Peptide 2] (H-CHSGYVGARC-OH; disulfide 1-10),64%,245 ± 25%,97%,370 ± 15%,100%,1.5e+10 M⁻¹,–,–,–,% Enhancement of thymidine incorporation (LE II cells [1]; peptide 10^-7 M): 380 ± 20%
EGF: epidermal growth factor,–,–,–,–,–,–,8800 ± 400 cpm,8200 ± 500 cpm,7600 ± 800 cpm,"cpm of iodinated anti-TGF α-KLH IgG bound to coated wells ([3]; inhibitor 10,000 ng/ml): 7800 ± 600 cpm"
H-Cys-His-Ser-Gly-Tyr-Val-Gly-Val-Arg-Cys-OH (H-CHSGYVGVRC-OH; disulfide 1-10 (inferred)) [TGFα fragment peptide],–,–,–,–,–,–,–,–,–,"extrapolated saturation binding of 125I-EGF (EGF receptors; one hour, 0.51±0.03 nM in its absence): 0.5 ± 0.02 nM"
"TGFα: native human transforming growth factor alpha, used as inhibitor in the radioimmunoassay",–,–,–,–,–,–,7600 ± 400 cpm,5100 ± 700 cpm,3800 ± 400 cpm,cpm of iodinated anti-TGF α-KLH IgG bound to coated wells ([3]; inhibitor 1 ng/ml): 8600 ± 800 cpm

# Reference: patent US4686283A, “Analogs of transforming and epidermal growth factor fragments for therapy and diagnosis” (Syntex (U.S.A.) Inc., priority 1985, dated 1987)
